Measured values taken from US7858329B2, “Antibody tools for the diagnostic use in the medical therapy with inhibitors of histone deacetylases” (TopoTarget Germany AG, priority 2002, dated 2010).

Key:
[1] = test system: histone acetylation in peripheral blood mononuclear cells; experiment: Flow cytometry of histone acetylation in blood mononuclear cells of patients under VPA treatment; format: in vivo, human; conditions: 10 to 30 mg/kg/day
Procedure: Histone acetylation analysis was performed according to the following procedure. Cells were fixed for 15 minutes in 1% formaldehyde in PBS. 1×10^6 cells/sample were washed with PBS+1% BSA and permeabilised with 200 μl of 0.1% Triton X100 in PBS for 10 min at room temperature (to allow for the antibody to reach acetylated nuclear proteins, such as histones). After washing with PBS+1% BSA pellets were incubated with 500 μl of 10% normal goat serum (NGS) in PBS for 20 min at 4° C. Histone acetylation levels were detected by incubation with T52 mouse monoclonal antibody (1 μg/ml in PBS+1% BSA). Detection was performed by incubation with a fluorescein isothiocyanate (FITC)-conjugated affinity pure F(ab′)2 fragment of goat anti-mouse IgG (Sigma) for 1 h at room temperature in the dark.

[2] = test system: acetylated histone H3 and histone H4 in U937 cells; experiment: Western blot of histone acetylation in U937 cells treated with HDACi; format: cell-based, human; conditions: for levels of acetylated histone H3 and histone H4 by Western blot: treatment in vitro for 6-12 hours
[3] = test system: cells derived from "class A" (globally hypoacetylated) primary human breast tumors; experiment: Apoptosis of cultured primary breast tumor cells treated with HDAC inhibitors; format: cell-based; conditions: cells from four class A tumors
Procedure: (§1) To establish whether this classification may have additional correlations with tumor biology and potential influences on the choice of clinical therapeutic treatments, the sensitivity of tumor cells derived from “class A” or “class B” primary human breast tumors to various HDAC inhibitors was evaluated in vitro (FIG. 7-8). To investigate this further, cells derived from excision surgery of primary breast tumors were cultured (on which in parallel IHC using the T25 antibody was performed to establish the histone acetylation levels in vivo) following standard procedures (Elenbaas et al., 2001, Genes Dev 15, 50-65). After a few passages in culture (in the absence of fetal bovine serum, to eliminate contamination of fibroblasts), the cell population is greatly enriched in tumor cells. The bulk populations of cells derived from four “class A” and three “class B” tumors were then treated with VPA, or TSA (FIGS. 7-8). […] The immunohistochemical classification as described here, can therefore be used to predict the response of tumor cells to treatment with HDAC inhibitors and could thus be used for prognostic predictions whether a patient should be treated with such inhibitors.

[4] = test system: cells derived from "class B" primary human breast tumors; experiment: as above; format: cell-based; conditions: cells from three class B tumors
Procedure: as §1

[5] = test system: acetylated histone H4 in U937 cells; experiment: Immunohistochemistry (T25) of U937 cells treated with HDACi; format: cell-based, human; conditions: 12 hours, 1 mM, T25 antibody
Procedure: To evaluate the specificity of the T25 antibody in immunohistochemistry (IHC), the inventors performed a preliminary test in an established cell line (U937 cells). […] Untreated cells, or cells treated for 12 hours with VPA (1 mM), were either processed for Western blot analysis (FIG. 3A), or fixed in formalin and then processed for immunohistochemistry (FIG. 1B). […] The T25 antibody can therefore be used for the analysis of histone acetylation levels by western blot analysis and immunohistochemistry (IHC).

[6] = Plasmatic VPA concentration in treated patients; format: in vivo, human; conditions: 10 to 30 mg/kg/day
Procedure: HDAC inhibitors are currently being tested for their clinical use in tumor patients (Marks et al., 2001, Nat Rev Cancer 1, 194-202). Therefore, the inventors evaluated the response to valproic acid, VPA (a HDAC inhibitor currently in clinical trials for several forms of cancer), in blood samples of patients subjected to VPA treatment. Peripheral blood was collected periodically before/at various times of VPA treatment (10 to 30 mg/kg/day; plasmatic VPA concentration: 0,75 mM), mononuclear cells were isolated by Ficoll analysis and then analyzed as described. […] The histone acetylation level measured in blood cells may serve as marker to evaluate the efficacy of HDAC inhibitor treatment of patients suffering from tumors, including solid tumors, to further orientate the treatment schedule.

[7] = test system: T-cell lymphomas; conditions: phase II; cited from earlier work
[8] = test system: histone acetylation in U-937 cells; experiment: Flow cytometry of histone acetylation (T52 staining) in U937 cells; format: cell-based, human; conditions: 10 ng/ml for 4 hrs, untreated cells 90
Procedure: Human U-937 cells were grown in RPMI-1640 medium supplemented with 10% Fetal Bovine Serum in standard culture conditions.
Exponentially growing U-937 cells were treated for 4 hrs with 10 ng/ml Trichostatin A (TSA, Sigma Aldrich). After the treatment cells were washed with cold phosphate buffer saline (PBS), counted and fixed in 1% formaldehyde in PBS for 15 minutes. Fixed cells were then washed, resuspended in PBS, and stocked at 4° C.
Histone acetylation analysis was performed according to the following procedure. Cells were fixed for 15 minutes in 1% formaldehyde in PBS. 1×10^6 cells/sample were washed with PBS+1% BSA and permeabilised with 200 μl of 0.1% Triton X100 in PBS for 10 min at room temperature (to allow for the antibody to reach acetylated nuclear proteins, such as histones). After washing with PBS+1% BSA pellets were incubated with 500 μl of 10% normal goat serum (NGS) in PBS for 20 min at 4° C. Histone acetylation levels were detected by incubation with T52 mouse monoclonal antibody (1 μg/ml in PBS+1% BSA). […]
Flow cytometry analysis was performed using a FACScan flow cytometer (Becton Dickinson), acquiring at least 10,000 events/sample. The instrument was equipped with a bandpass 530/30 nm optical filter for FITC fluorescence detection (FL1 channel) and a 650 nm longpass optical filter in front of the PI (FL3) channel detector. […]

[9] = test system: control-transduced (MCSV) primary tumor-derived cells; experiment: Sensitivity to HDAC inhibitor of transduced primary tumor-derived cell culture; format: cell-based; conditions: high histone H4 acetylation
[10] = test system: tumor cells transduced with HDAC/MTA constructs (HDAC-1, HDAC-2, MTA1); experiment: as above; format: cell-based; conditions: histone hypoacetylation
Procedure: An aliquot of the cells was collected, and Western blot analysis (using antibodies directed against acetylated histone H4) was performed on protein extracts prepared from these cells, to verify that overexpression of either HDAC, or of MTA1, led to a decrease in histone acetylation levels of the tumor cells.

[11] = test system: stage III/IV non-small cell lung cancer; conditions: phase II, monotherapy; cited from earlier work

CCCC(CCC)C(=O)O [VPA, valproic acid]
Histone acetylation levels, increase ([1]; after 7-days of treatment (day 8)): > 3 fold | Histone acetylation levels ([1]; day 28-35): further increased | levels of acetylated histone H3 and histone H4 by Western blot [2]: drastic increase | apoptosis upon treatment with the HDAC inhibitors [3]: showed apoptosis | apoptosis upon treatment with the HDAC inhibitors [4]: totally resistant | acetylated histone H4 staining in immunohistochemistry [5]: increase in the intensity of staining and number of stained cell nuclei | plasmatic VPA concentration [6]: 0,75 mM

C/C=C1\NC(=O)[C@H]2CSSCC/C=C/[C@H](CC(=O)N[C@H](C(C)C)C(=O)N2)OC(=O)[C@H](C(C)C)NC1=O [depsipeptide]
clinical outcome [7]: used successfully

CC(/C=C/C(=O)NO)=C\[C@@H](C)C(=O)c1ccc(N(C)C)cc1 [TSA, Trichostatin A]
acetylated histones H3 and H4 bands in Western blot ([2]; detection with T52 antibody (FIG. 9)): greatly increased | levels of acetylated histone H3 and histone H4 by Western blot [2]: drastic increase | apoptosis upon treatment with the HDAC inhibitors [3]: showed apoptosis | apoptosis upon treatment with the HDAC inhibitors [4]: totally resistant | mean fluorescence value (FL1-H), T52 staining [8]: 450 | sensitivity to treatment (apoptosis) [9]: resistant | apoptosis [10]: up to 50%

CCCC(=O)OCOC(=O)C(C)(C)C [Pivanex]
clinical activity [11]: demonstrating activity
